The values that follow come from patent publication US20170008888A1 (KYORIN PHARMACEUTICAL CO., LTD., priority 2014, published 2017).

Assay [1] concerns collagen-induced arthritis mouse model. The assay is described as follows: Collagen-induced arthritis (CIA) mouse model: in-life disease score, paw thickness. The format is in vivo, mouse (DBA/1J). To be noted: for change in group average disease score - mean, Day versus Day 21 (start of treatment): 60 mg/kg PO BID from D21.
For assay [2] the test system is unchanged. The assay is described as follows: Collagen-induced arthritis (CIA) mouse model: histopathology of tibiofemoral and tarsal/phalangeal joints. The format is in vivo, mouse (DBA/1J).
Assay [3] relates to TLR4 signaling in primary human umbilical vein endothelial cells. The assay is described as follows: Cytokine response to TLR4 agonism (LPS) in primary HUVEC (ELISA). The format is cell-based. As to the method:
In this example, the following commercially available inhibitors were tested:
The results were compared with test compound 61.
Pooled primary human umbilical vein endothelial cells (HUVEC) were obtained from Lonza (Allendale, N.J.) and maintained in either complete EGM-2 defined media (Lonza) or Medium 200 supplemented with Low Serum Growth Supplement (Life Technologies, Grand Island, N.Y.). Cells at low passage (<5) were seeded at 4e5 cells/ml and allowed to adhere overnight at 37° C. in a humidified atmosphere at 5% CO2. Cells were pre-treated with test compounds for 1 h prior to TLR2 or TLR4 stimulation. To test for the effects of TLR2 agonism, the TLR2 agonist peptide Pam3CysK4 (Santa Cruz Biotechnology, Dallas, Tex.) was used at 10 μg/ml. PHC-SKKK (Enzo Life Sciences, Farmingdale, N.Y.) served as the negative control peptide. To test for the effects of TLR4 agonism, LPS from E. coli 0111:B4 (EMD Millipore, Billerica, Mass.) was used at 100 ng/ml. Cells were incubated for 22 hr, after which the supernatant was collected and analyzed for cytokine concentrations by ELISA (Life Technologies). Absorbance at 450 nm was read using the Wallac 1420 Victor^2 multilabel microplate reader (Perkin Elmer, Waltham, Mass.).

The subject of assay [4] is human fetal lung fibroblasts (HFL-1). The assay is described as follows: TGF-β-induced fibrotic response (α-SMA expression) in HFL-1. Conditions: HFL1, 2 ng/ml TGF-β1, 48 h, Western blot, read-out: Inhibition of α-SMA expression, EC50 (μM), HFL-1. The class given is cell-based. As to the method: Nontransformed, human fetal lung fibroblasts (HFL-1) were obtained from ATCC (Manassas, Va.) and maintained in F12K media containing 10% (v/v) charcoal-dextran treated, heat inactivated FBS (Omega Scientific, Tarzana, Calif.). Primary lung fibroblasts isolated from a patient diagnosed with asthma were obtained from Lonza (Allendale, N.J.) and maintained in FGM-2 fibroblast growth medium (Lonza). Cells were seeded at a density to provide 50-60% confluence after an overnight incubation at 37° C. in a humidified atmosphere at 5% CO2. […] Protein content was determined using the Bio-Rad Dc Protein kit (Bio-Rad Laboratories, Hercules, Calif.), and normalized prior to adding an equal volume of 2× Laemmli sample buffer (Sigma). Proteins in the whole cell lysates were resolved via SDS-PAGE gel electrophoresis, and α-SMA was detected via Western blot analysis using a rabbit anti-human α-SMA polyclonal antibody (Abcam, Cambridge, Mass.). α-SMA signal was normalized to the signal of β-actin as detected using mouse anti-human […] antibody (Cell Signaling Technology). DyLight 680 and 800 conjugated secondary antibodies were used and the infrared signals were detected using the Odyssey Imaging System (LI-COR Biotechnology, Lincoln, Nebr.).

Assay [5] relates to primary human keratinocytes. The assay is described as follows: IL-17A-stimulated cytokine response by primary human keratinocytes. The format is cell-based. To be noted: Keratinocyte, 200 ng/ml IL-17A, 48 h. As to the method: Primary human keratinocytes were obtained from Life Technologies (Grand Island, N.Y.) and maintained in growth supplemented Defined Keratinocyte-SFM Medium (Life Technologies). Cells were seeded at 2.5e4 cells/ml onto collagen-coated plates and incubated at 37° C. in a humidified atmosphere at 5% CO2 until the cells reached confluence. Cells were pre-treated with test compounds (10 μM down by ⅕ in a 4-point serial dilution series) for 1 h at 37° C. in a humidified atmosphere at 5% CO2. DMSO at a final concentration of 0.1% served as the non-inhibited control. Cells were then stimulated with 200 ng/ml human recombinant IL-17A (eBioscience, San Diego, Calif.) for 48 h. Supernatant was collected and analyzed for cytokine concentrations using the Human Inflammatory Magnetic 5-Plex Panel from Life Technologies according to the manufacturer's instructions. Magnetic beads were measured on the Bio-Plex MAGPIX multiplex reader instrument using the accompanying xPONENT 4.2 acquisition software (Bio-Rad Laboratories, Hercules, Calif.). Data were analyzed via the Bio-Plex Manager software v6.1 (Bio-Rad Laboratories).

Setting [6] is: Group 3 (n=10): 60 mg/kg PO BID D21-D42.
The mark [7] stands for this setting: Group 3: 60 mg/kg PO BID D21-D42.

Like-named read-outs stand apart in the source and are kept apart here.

Take `CCOc1cc(C(=O)N2CCC(N3CCCC3)CC2)ccc1Nc1cc2c(cn1)N(C)C(=O)c1ccccc1N2C` [Compound 46, 3-(2-Ethoxy-4-(4-(pyrrolidin-1-yl)piperidine-1-carbonyl)phenylamino)-5,11-dimethyl-5H-benzo[e]pyrido[3,4-b][1,4]diazepin-10(11H)-one]: the “change in group average disease score - mean, Day versus Day 21 (start of treatment)” value came out at 0.0 in assay [1] (Day 21); 0.4 in assay [1] (Day 24); 1.3 in assay [1] (Day 26); 2.0 in assay [1] (Day 28); 2.1 in assay [1] (Day 31); 2.7 in assay [1] (Day 33). Also, the entries for the “change in group average disease score - mean, Day versus Day 21 (start of treatment)” value in assay [1] (Day 35), in assay [1] (Day 37) and in assay [1] (Day 39) were 2.4, 2.7 and 2.8, respectively. Also, the “percent reduction in overall disease and total paw scores” value in assay [1] (treatment Day 21-42, Tofacitinib 15 mg/kg BID PO, doses in Table 28) was “about 55%”. The “histopathology of hind-limb joints (knee, paw/tarsal), in words” value in assay [2] (Day 42, H&E) was “nearly twice as effective as Tofacitinib at protecting the tarsal joints”. Moreover, in assay [2] (setting [6]), the “Animals with normal tarsal joints (% of total n in group)” value was found to be 70%. Besides, the “Number of animals with normal tarsal joints” value in assay [2] (setting [6]) was found to be 7. The “Tibiofemoral joint score: cartilage erosion/ulceration” value in assay [2] (setting [7]) was 12.5. Further, in assay [2] (setting [7]), the “Tibiofemoral joint score: inflammation” value amounted to 15.0. The “Tibiofemoral joint score: periosteal proliferation/erosion” value in assay [2] (setting [7]) is recorded as 3.8. For the same compound, the “Tibiofemoral joint score: synovial hyperplasia” value in assay [2] (setting [7]) is 3.0.
A word on the EC50: it is the concentration needed to bring the measured effect to its halfway point. As for `CCOc1cc(C(=O)N2CCC(N3CCN(C)CC3)CC2)ccc1Nc1cc2c(cn1)N(C)C(=O)c1ccccc1N2C` [Compound 61], the “G-CSF” value was 14 ± 5 pg/mL in assay [3] (5 μM inhibitor, +100 ng/ml LPS) and 0 ± 25 pg/mL in assay [3] (5 μM inhibitor, No Stimulation). Also, the “IL-6” value was found to be 113 ± 14 pg/mL in assay [3] (5 μM inhibitor, +100 ng/ml LPS) and 7 ± 1 pg/mL in assay [3] (5 μM inhibitor, No Stimulation). In addition, in assay [3] (5 μM inhibitor, +100 ng/ml LPS, 22 hr), the “IL-8” value was 1105 ± 25 pg/mL. The “G-CSF response to TLR4 agonism, in words” value in assay [3] (summary of Table 23) is given as “reduced the G-CSF response”. Moreover, the “IL-6 response, in words” value in assay [3] (summary of Table 24) was “reduced”. Further, the EC50 in assay [4] lay in the range of 0.75 to 2.3 µM.
Regarding `CCOc1cc(C(=O)N2CC[C@@H](N(C)C)C2)ccc1Nc1cc2c(cn1)N(C)C(=O)c1ccccc1N2C` [Compound 115], the EC50 in assay [5] (read-out: Inhibition EC50 (μM), GM-CSF) was 2.18 µM; in assay [5] (read-out: Inhibition EC50 (μM), IL-1β), 0.5 µM; in assay [5] (read-out: Inhibition EC50 (μM), IL-6), 0.35 µM; in assay [5] (read-out: Inhibition EC50 (μM), IL-8) it was 0.46 µM; in assay [5] (read-out: Inhibition EC50 (μM), TNF-α), 1 µM.
